Measurements: ChEMBL document CHEMBL1154505, “Nakijiquinones E and F, new dimeric sesquiterpenoid quinones from marine sponge” (Bioorg Med Chem, 2009)

How the values were obtained:
Format in all cases: functional, cell-based
P388 = experiment: Cytotoxicity against mouse P388 cells
L1210 = experiment: Cytotoxicity against mouse L1210 cells
KB = experiment: Cytotoxicity against human KB cells

Measured: IC50

C=C1CCC[C@H]2[C@](C)(Cc3cc(C(=O)OC)c(O)c(NC4=CC(=O)C(O)=C(C[C@]5(C)[C@@H](C)CC[C@]6(C)C(C)=CCC[C@@H]56)C4=O)c3O)[C@@H](C)CC[C@]12C [NAKIJIQUINONE E]
> 10 µg/mL: all assays above

COC(=O)c1cc(C[C@]2(C)[C@@H](C)CC[C@]3(C)C(C)=CCC[C@@H]23)c(O)c(NC2=CC(=O)C(O)=C(C[C@]3(C)[C@@H](C)CC[C@]4(C)C(C)=CCC[C@@H]34)C2=O)c1O [NAKIJIQUINONE F]
> 10 µg/mL: all assays above
